Legend:
S. pneumoniae ATCC 49619 = assay: NCCLS broth microdilution MIC, S. pneumoniae ATCC 49619; assay type: cell-based, Streptococcus pneumoniae; conditions: organism H = S. pneumoniae ATCC 49619
From the text: (§1) Compounds according to this invention were screened for their in vitro activities against selected species of bacteria and fungi. […]

S. aureus ATCC 13709 = assay: NCCLS broth microdilution MIC, S. aureus (MSSA); assay type: cell-based, Staphylococcus aureus; conditions: organism E = S. aureus ATCC 13709 (MSSA)
From the text: as §1

E. faecalis ATCC 29212 = assay: NCCLS broth microdilution MIC, E. faecalis; assay type: cell-based; conditions: organism C = E. faecalis ATCC 29212
From the text: as §1

S. aureus ATCC 27660 = assay: NCCLS broth microdilution MIC, S. aureus (MRSA); assay type: cell-based, Staphylococcus aureus; conditions: organism F = S. aureus ATCC 27660 (MRSA)
From the text: as §1

C. albicans ATCC 38247 = assay: Antifungal MIC, C. albicans; assay type: cell-based, Candida albicans; conditions: organism B = C. albicans ATCC 38247
From the text: as §1

B. cereus ATCC 11778 = assay: NCCLS broth microdilution MIC, B. cereus; assay type: cell-based, Bacillus cereus; conditions: organism A = B. cereus ATCC 11778
From the text: as §1

[1] = Staphylococcus aureus, read-out: Minimum Inhibitory Concentration (MIC)

| Structure (SMILES) | Minimum Inhibitory Concentration (MIC) (S. pneumoniae ATCC 49619) | Minimum Inhibitory Concentration (MIC) (S. aureus ATCC 13709) | Minimum Inhibitory Concentration (MIC) (E. faecalis ATCC 29212) | Minimum Inhibitory Concentration (MIC) (S. aureus ATCC 27660) | Minimum Inhibitory Concentration (MIC) (C. albicans ATCC 38247) | Minimum Inhibitory Concentration (MIC) (B. cereus ATCC 11778) | MIC (S. pneumoniae ATCC 49619; Streptococcus pneumoniae, ATCC49619, read-out: Minimum Inhibitory Concentration (MIC)) | MIC (S. aureus ATCC 13709; [1]) | MIC (E. faecalis ATCC 29212; Enterococcus faecalis, ATCC29212, read-out: Minimum Inhibitory Concentration (MIC)) | MIC (S. aureus ATCC 27660; [1]) | MIC (C. albicans ATCC 38247; Candida albicans, ATCC38247, read-out: Minimum Inhibitory Concentration (MIC)) | MIC (B. cereus ATCC 11778; Bacillus cereus, ATCC11778, read-out: Minimum Inhibitory Concentration (MIC)) |
| --- | --- | --- | --- | --- | --- | --- | --- | --- | --- | --- | --- | --- |
| CN(C)CCSCCn1cc(NC(=O)c2cc3ccccc3cn2)cc1C(=O)Nc1cc(C(=O)Nc2cc(C(=O)NCCN3CCSCC3)n(C)c2)n(C)c1 [Ib-80] | +++ (+++ = MIC ≦ 4) | +++ (+++ = MIC ≦ 4) | +++ (+++ = MIC ≦ 4) | +++ (+++ = MIC ≦ 4) | +++ (+++ = MIC ≦ 4) | +++ (+++ = MIC ≦ 4) | – | – | – | – | – | – |
| CCN(CC)CCNC(=O)c1cc(NC(=O)c2ccc(NC(=O)c3cc(NC(=O)c4cc5ccccc5cn4)cn3C)cc2)cn1C [Ic-9] | +++ (+++ = MIC ≦ 4) | +++ (+++ = MIC ≦ 4) | +++ (+++ = MIC ≦ 4) | +++ (+++ = MIC ≦ 4) | >32 µg/mL | +++ (+++ = MIC ≦ 4) | – | – | – | – | – | – |
| Cc1cc(NC(=O)c2cc(NC(=O)c3cc(NC(=O)c4cc5ccccc5cn4)cn3C)cn2CCN2CCCC2)sn1 [Ib-65] | +++ (+++ = MIC ≦ 4) | +++ (+++ = MIC ≦ 4) | +++ (+++ = MIC ≦ 4) | +++ (+++ = MIC ≦ 4) | >32 µg/mL | +++ (+++ = MIC ≦ 4) | – | – | – | – | – | – |
| Cn1cc(NC(=O)c2cc3ccccc3cn2)cc1C(=O)Nc1cc(C(=O)Nc2cn(C)c(C(=O)NCCN3CCOCC3)n2)n(C)c1 [Ib-58] | +++ (+++ = MIC ≦ 4) | ++ (++ = 4 < MIC < 12) | +++ (+++ = MIC ≦ 4) | >32 µg/mL | >32 µg/mL | >32 µg/mL | – | – | – | – | – | – |
| CN1CCN(CCNC(=O)c2cc(NC(=O)c3ccc(NC(=O)c4cc(NC(=O)c5cc6ccccc6cn5)cn4C)cc3)cn2C)CC1 [Ic-14] | +++ (+++ = MIC ≦ 4) | +++ (+++ = MIC ≦ 4) | >32 µg/mL | +++ (+++ = MIC ≦ 4) | >32 µg/mL | >32 µg/mL | – | – | – | – | – | – |
| Cn1cc(NC(=O)c2cc(NC(=O)c3cc(NC(=O)c4cc5ccccc5cn4)c[nH]3)cn2C)cc1C(=O)NCCN1CCCCC1 [Ib-62] | +++ (+++ = MIC ≦ 4) | ++ (++ = 4 < MIC < 12) | +++ (+++ = MIC ≦ 4) | +++ (+++ = MIC ≦ 4) | >32 µg/mL | +++ (+++ = MIC ≦ 4) | – | – | – | – | – | – |
| Cn1cc(NC(=O)c2cc(NC(=O)c3cc4ccccc4cn3)no2)cc1C(=O)OCCN1CCOCC1 [Ib-61] | +++ (+++ = MIC ≦ 4) | + (+ = 12 ≦ MIC ≦ 32) | +++ (+++ = MIC ≦ 4) | +++ (+++ = MIC ≦ 4) | >32 µg/mL | >32 µg/mL | – | – | – | – | – | – |
| CC1CN(CCNC(=O)c2cc(NC(=O)c3ccc(NC(=O)c4cc(NC(=O)c5cc6ccccc6cn5)cn4C)cc3)cn2C)CC(C)O1 (stereo not shown) [Ic-17] | +++ (+++ = MIC ≦ 4) | +++ (+++ = MIC ≦ 4) | +++ (+++ = MIC ≦ 4) | +++ (+++ = MIC ≦ 4) | >32 µg/mL | +++ (+++ = MIC ≦ 4) | – | – | – | – | – | – |
| Cn1cc(NC(=O)c2cc(NC(=O)c3cc4ccccc4cn3)cn2CCCN2CCCCC2)cc1C(=O)Nc1ccc2cnccc2c1 [Ib-90] | +++ (+++ = MIC ≦ 4) | +++ (+++ = MIC ≦ 4) | +++ (+++ = MIC ≦ 4) | +++ (+++ = MIC ≦ 4) | + (+ = 12 ≦ MIC ≦ 32) | +++ (+++ = MIC ≦ 4) | – | – | – | – | – | – |
| COCn1cc(NC(=O)c2cc3ccccc3cn2)cc1C(=O)Nc1cc(C(=O)Nc2cc(C(=O)NCCN3CCOCC3)n(C)c2)n(C)c1 [Ib-72] | +++ (+++ = MIC ≦ 4) | +++ (+++ = MIC ≦ 4) | +++ (+++ = MIC ≦ 4) | +++ (+++ = MIC ≦ 4) | >32 µg/mL | +++ (+++ = MIC ≦ 4) | – | – | – | – | – | – |
| Cn1cc(NC(=O)c2cc(NC(=O)c3cc(NC(=O)c4cc5ccccc5cn4)c[nH]3)cn2C)cc1C(=O)NCCN1CCC(F)CC1 [Ib-71] | +++ (+++ = MIC ≦ 4) | +++ (+++ = MIC ≦ 4) | +++ (+++ = MIC ≦ 4) | +++ (+++ = MIC ≦ 4) | >32 µg/mL | +++ (+++ = MIC ≦ 4) | – | – | – | – | – | – |
| CC(=O)[O-].Cc1cc(NC(=O)c2cc(NC(=O)c3cc(NC(=O)c4cc5ccccc5cn4)cn3C)cn2CCC[N+](C)(C)C)sn1 [Ib-74] | >32 µg/mL | >32 µg/mL | >32 µg/mL | >32 µg/mL | >32 µg/mL | >32 µg/mL | – | – | – | – | – | – |
| CCN(CC)CCNC(=O)c1cc(NC(=O)c2cc(NC(=O)c3cc(NC(=O)c4cc5ccccc5cn4)cn3C)c[nH]2)cn1C [Ib-89] | +++ (+++ = MIC ≦ 4) | +++ (+++ = MIC ≦ 4) | +++ (+++ = MIC ≦ 4) | +++ (+++ = MIC ≦ 4) | + (+ = 12 ≦ MIC ≦ 32) | +++ (+++ = MIC ≦ 4) | – | – | – | – | – | – |
| Cn1cc(NC(=O)c2ccc(NC(=O)c3cc(NC(=O)c4cc5ccccc5cn4)cn3C)cc2)cc1C(=O)NCCN1CCC(O)CC1 [Ic-8] | +++ (+++ = MIC ≦ 4) | +++ (+++ = MIC ≦ 4) | +++ (+++ = MIC ≦ 4) | +++ (+++ = MIC ≦ 4) | >32 µg/mL | +++ (+++ = MIC ≦ 4) | – | – | – | – | – | – |
| CCN(CCO)CCNC(=O)c1cc(NC(=O)c2ccc(NC(=O)c3cc(NC(=O)c4cc5ccccc5cn4)cn3C)cc2)cn1C [Ic-18] | +++ (+++ = MIC ≦ 4) | +++ (+++ = MIC ≦ 4) | +++ (+++ = MIC ≦ 4) | +++ (+++ = MIC ≦ 4) | >32 µg/mL | +++ (+++ = MIC ≦ 4) | – | – | – | – | – | – |
| CN(C)CCCn1cc(NC(=O)c2cc(NC(=O)c3cc4ccccc4cn3)cn2C)cc1C(=O)Nc1cc(C(=O)NCCN2CCOCC2)n(C)c1 [Ib-81] | +++ (+++ = MIC ≦ 4) | +++ (+++ = MIC ≦ 4) | +++ (+++ = MIC ≦ 4) | +++ (+++ = MIC ≦ 4) | + (+ = 12 ≦ MIC ≦ 32) | +++ (+++ = MIC ≦ 4) | – | – | – | – | – | – |
| Cn1cc(NC(=O)c2cc(NC(=O)c3cc(NC(=O)c4cc5ccccc5cn4)c[nH]3)cn2C)cc1C(=O)NCCN1CCSCC1 [Ib-75] | – | – | – | – | – | – | < 4 µg/mL | < 4 µg/mL | < 4 µg/mL | < 4 µg/mL | > 32 µg/mL | < 4 µg/mL |
| CN(C)CCNC(=O)c1cc(NC(=O)c2ccc(NC(=O)c3cc(NC(=O)c4cc5ccccc5cn4)cn3C)cc2)cn1C [Ic-16] | +++ (+++ = MIC ≦ 4) | +++ (+++ = MIC ≦ 4) | +++ (+++ = MIC ≦ 4) | +++ (+++ = MIC ≦ 4) | >32 µg/mL | +++ (+++ = MIC ≦ 4) | – | – | – | – | – | – |
| Cn1cc(NC(=O)c2cc(NC(=O)c3cc(NC(=O)c4cc5ccccc5cn4)c[nH]3)cn2C)cc1C(=O)NCCc1ccccn1 [Ib-69] | +++ (+++ = MIC ≦ 4) | +++ (+++ = MIC ≦ 4) | +++ (+++ = MIC ≦ 4) | +++ (+++ = MIC ≦ 4) | >32 µg/mL | +++ (+++ = MIC ≦ 4) | – | – | – | – | – | – |
| Cn1cc(NC(=O)c2cc(NC(=O)c3cc(NC(=O)c4nccc5ccccc45)cn3C)cn2C)cc1C(=O)NCCN1CCOCC1 [Ib-1] | +++ (+++ = MIC ≦ 4) | – | +++ (+++ = MIC ≦ 4) | – | >32 µg/mL | +++ (+++ = MIC ≦ 4) | – | – | – | – | – | – |
